Paper PMC7411735, “New Terpendole Congeners, Inhibitors of Sterol O-Acyltransferase, Produced by Volutella citrinella BF-0440” (Molecules, 2020)
Like-named read-outs stand apart in the source and are kept apart here.

Experiments:
human SOAT1 = target: T1, human SOAT1 (Homo sapiens, UniProt P35610); test: SOAT1 activity in SOAT1-CHO cells ([14C]CE formation from [1-14C]oleic acid); assay type: cell-based; conditions: for IC50: n ≧ 3
T1 construct: expressed in transfected cells; host or cells: CHO AC29 (SOAT-deficient) cells
T1 sequence (P35610 1-550): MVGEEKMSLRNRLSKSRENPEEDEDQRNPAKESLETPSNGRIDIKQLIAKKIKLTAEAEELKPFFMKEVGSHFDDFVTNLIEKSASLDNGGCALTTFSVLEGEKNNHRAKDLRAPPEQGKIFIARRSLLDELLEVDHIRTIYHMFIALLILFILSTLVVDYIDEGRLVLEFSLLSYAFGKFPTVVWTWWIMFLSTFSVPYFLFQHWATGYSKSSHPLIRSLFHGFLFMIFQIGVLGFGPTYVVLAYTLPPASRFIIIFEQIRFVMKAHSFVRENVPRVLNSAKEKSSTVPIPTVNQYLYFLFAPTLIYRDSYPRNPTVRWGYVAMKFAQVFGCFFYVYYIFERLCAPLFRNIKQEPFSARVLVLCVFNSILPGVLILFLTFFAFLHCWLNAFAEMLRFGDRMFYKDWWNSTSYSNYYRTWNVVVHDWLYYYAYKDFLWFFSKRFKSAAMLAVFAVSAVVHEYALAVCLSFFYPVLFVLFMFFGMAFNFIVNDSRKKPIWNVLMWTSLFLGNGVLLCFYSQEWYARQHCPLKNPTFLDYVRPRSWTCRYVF
Protocol: (§1) CHO cells (AC29 cells, SOAT-deficient cells) expressing the SOAT1 or SOAT2 genes from human were cultured using a previously described method [17].
(§2) Assays for human SOAT1 and SOAT2 activities using SOAT1- and SOAT2-CHO cells were performed using our established method [11, 17]. […] At least 80% confluent cells were used for assays. […] After a 6-h incubation at 37 °C in 5% CO2, medium was removed, and the cells in each well were washed twice with PBS. Cells were lysed by adding 0.25 mL of 10 mM Tris-HCl (pH 7.5) containing 0.1% (w/v) sodium dodecyl sulfate, and [^14C]CE was analyzed using a FLA-7000 analyzer (Fuji Film). In this cell-based assay, [^14C]CE was produced by the reaction of SOAT1 or SOAT2. SOAT inhibitory activity (%) is defined as ([1-^14C]CE-drug/[^14C]CE-control) × 100.

human SOAT2 [1] = target: T2, human SOAT2 (Homo sapiens, UniProt O75908); test: SOAT2 activity in SOAT2-CHO cells ([14C]CE formation from [1-14C]oleic acid); assay type: cell-based; conditions: for IC50: n ≧ 3
T2 construct: expressed in transfected cells; host or cells: CHO AC29 (SOAT-deficient) cells
T2 sequence (O75908 1-522): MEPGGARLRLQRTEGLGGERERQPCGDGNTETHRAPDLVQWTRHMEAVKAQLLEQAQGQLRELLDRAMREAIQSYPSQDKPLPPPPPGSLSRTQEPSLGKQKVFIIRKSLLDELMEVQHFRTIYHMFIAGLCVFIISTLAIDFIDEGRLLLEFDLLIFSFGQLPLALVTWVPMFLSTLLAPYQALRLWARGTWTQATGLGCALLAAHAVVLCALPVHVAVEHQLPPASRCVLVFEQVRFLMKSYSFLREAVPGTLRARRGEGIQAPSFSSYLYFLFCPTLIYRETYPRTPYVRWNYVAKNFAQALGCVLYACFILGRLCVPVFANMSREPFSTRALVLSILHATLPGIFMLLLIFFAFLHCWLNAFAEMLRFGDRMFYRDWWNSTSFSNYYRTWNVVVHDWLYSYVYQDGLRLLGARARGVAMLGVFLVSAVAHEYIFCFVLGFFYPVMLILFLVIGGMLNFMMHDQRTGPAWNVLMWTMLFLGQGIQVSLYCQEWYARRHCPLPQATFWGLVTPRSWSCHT
Protocol: as §1, §2

human SOAT2 [2] = test: as above; assay type: cell-based; conditions: classified by SI
Protocol: as §1, §2

human SOAT2 [3] = test system: human SOAT2; set-up: method as in PMID 32467602; conditions: classified by SI; cited from earlier work
human SOAT2 [4] = target: T2, human SOAT2; set-up: method as in PMID 32467602; conditions: SOAT2-CHO cells; cited from earlier work
[5] = test system: African green monkey SOAT1; set-up: method as in PMID 16629409; conditions: African green monkey SOAT1-CHO cells; cited from earlier work
[6] = test system: African green monkey SOAT2; set-up: method as in PMID 16629409; conditions: cited from earlier work
SOAT2 = test system: SOAT2; set-up: method as in PMID 17390588; conditions: cited from earlier work
[7] = IC50 SOAT1, human SOAT1-CHO cells
[8] = IC50 SOAT2, human SOAT2-CHO cells
[9] = SAR comparison: 4 vs 6 (R5), 8 vs 11 (R6)

CC(C)=CC1OC2C(OC3CCC4(C)C(C)(O)C(CC5(O)C(=O)Nc6cccc(CC7OC7(C)C)c65)CCC4(O)C34OC24)C(C)(C)O1 (stereo not shown) [Compound 1, Terpendole N]
IC50 (human SOAT1; read-out: IC50 SOAT1, human SOAT1-CHO cells): > 14 µM
IC50 (human SOAT2 [1]; read-out: IC50 SOAT2, human SOAT2-CHO cells): > 14 µM

CC(C)=C[C@H]1O[C@H]2[C@H]3O[C@@]34[C@H](CC[C@@]3(C)[C@@]4(O)CC[C@H]4Cc5c([nH]c6cccc(CC7OC7(C)C)c56)[C@@]43C)O[C@@H]2C(C)(C)O1 (stereo partly shown) [Compound 2, terpendole O]
IC50 (human SOAT1; [7]): 2.8 µM
IC50 (human SOAT2 [1]; [8]): 2.4 µM
Type of inhibitors (human SOAT2 [2]): dual (Dual with -1.0 < SI < +1.0)

CC(C)=CCOC(C)(C)[C@H]1O[C@H]2CC[C@@]3(C)[C@]4(O[C@H]4C[C@H]4Cc5c([nH]c6ccccc56)[C@@]43C)[C@]23O[C@@H]3[C@@H]1O [Compound 3, terpendole P]
IC50 (human SOAT1; [7]): 5.9 µM
IC50 (human SOAT2 [1]; [8]): 6.9 µM
Type of inhibitors (human SOAT2 [2]): dual (Dual with -1.0 < SI < +1.0)

CC(C)=C[C@H]1O[C@H]2[C@H]3O[C@@]34[C@H](CC[C@@]3(C)[C@@]4(O)CC[C@H]4C[C@@]5(O)c6c(CC7OC7(C)C)cccc6N[C@@]5(O)[C@@]43C)O[C@@H]2C(C)(C)O1 (stereo partly shown) [Compound 4, voluhemin A]
enhancement of SOAT1 inhibitory activity relative to comparison compound (human SOAT1; [9]): approximately 10 fold
enhancement of SOAT2 inhibitory activity relative to comparison compound (human SOAT2 [1]; [9]): approximately 10 fold
Type of inhibitors (human SOAT2 [3]): dual (Dual with -1.0 < SI < +1.0)

CC(C)=C[C@H]1O[C@H]2[C@H]3O[C@@]34[C@@H](O[C@@H]2C(C)(C)O1)[C@H](O)C[C@@]1(C)[C@@]4(O)CC[C@H]2C[C@@]3(O)c4c(CC5OC5(C)C)cccc4N[C@@]3(O)[C@@]21C (stereo partly shown) [Compound 6, NK12838]
IC50 (human SOAT2 [4]): 3.5 µM
Type of inhibitors (human SOAT2 [3]): dual (Dual with -1.0 < SI < +1.0)

CC(C)=C[C@H]1O[C@H]2[C@H]3O[C@@]34[C@H](CC[C@@]3(C)[C@@]4(O)CC[C@H]4Cc5c([nH]c6ccccc56)[C@@]43C)O[C@@H]2C(C)(C)O1 [Compound 7, terpendole C]
IC50 (human SOAT1; [7]): 2 µM
IC50 (human SOAT2 [1]; [8]): 2.2 µM
Type of inhibitors (human SOAT2 [2]): dual (Dual with -1.0 < SI < +1.0)

CC(C)=CCOC(C)(C)[C@H]1O[C@H]2CC[C@@]3(C)[C@@H](CC[C@H]4Cc5c([nH]c6ccccc56)[C@@]43C)[C@]23O[C@@H]3[C@@H]1O [Compound 8, terpendole D]
IC50 (human SOAT1; [7]): 0.8 µM
IC50 (human SOAT2 [1]; [8]): 2.1 µM
Type of inhibitors (human SOAT2 [2]): dual (Dual with -1.0 < SI < +1.0)

CC(C)=CCc1cccc2[nH]c3c(c12)C[C@@H]1CC[C@@]2(O)[C@@]45O[C@@H]4[C@@H]4O[C@H](C=C(C)C)OC(C)(C)[C@H]4O[C@H]5CC[C@]2(C)[C@@]31C [Compound 9, terpendole L]
IC50 (human SOAT1; [7]): 6.8 µM
IC50 (human SOAT2 [1]; [8]): 1.8 µM
Type of inhibitors (human SOAT2 [2]): dual (Dual with -1.0 < SI < +1.0)

CC(C)=CCc1cccc2[nH]c3c(c12)C[C@@H]1CC[C@@]2(O)[C@@]45O[C@@H]4[C@H](O)[C@@H](C(C)(C)O)O[C@H]5CC[C@]2(C)[C@@]31C [Compound 10, tolypocladin A]
IC50 (human SOAT1; human SOAT1-CHO cells, read-out: IC50 SOAT1): > 18 µM
IC50 (human SOAT2 [1]; human SOAT2-CHO cells, read-out: IC50 SOAT2): > 18 µM

CC(C)=CCOC(C)(C)[C@H]1O[C@H]2CC[C@@]3(C)[C@@](O)(CC[C@H]4Cc5c([nH]c6ccccc56)[C@@]43C)[C@]23O[C@@H]3[C@@H]1O [Compound 11, terpendole J]
IC50 (human SOAT1; [7]): 18.6 µM
IC50 (human SOAT2 [1]; [8]): 10.7 µM
Type of inhibitors (human SOAT2 [2]): dual (Dual with -1.0 < SI < +1.0)

CC(C)=CCc1c([C@H](O)C2OC2(C)C)ccc2[nH]c3c(c12)C[C@@H]1CC[C@@]2(O)C(C)(C)C(=O)CC[C@]2(C)[C@@]31C (stereo partly shown) [Compound 12, sespendole]
IC50 [5]: 12 µM
IC50 ([6]; African green monkey SOAT2-CHO cells): 6.5 µM
Type of inhibitors ([6]; classified by SI, African green monkey SOAT1 and SOAT2-CHO cells): dual (Dual with -1.0 < SI < +1.0)

pyripyropene A
SOAT isozyme selectivity (SOAT2): highly selective SOAT2 inhibitor
